# Experimental data taken from US5077037A, “Novel compositions for magnetic resonance imaging” (Mallinckrodt Medical, Inc., priority 1990, dated 1991).
# Columns and labels:
# [1] = tested on: mouse; assay: mouse i.v. LD50 (acute toxicity); type: in vivo; details: 0.5M solution, confidence limit of 14.3-18.4 mmol/kg
# [2] = relaxivity rates (Bruker NMR MiniSpec, 20 MHz, 40° C.); type: physicochemical
# [3] = sterile water for injection (SWFI)
smiles,measurement,setting,value
O=C([O-])CN(CCN(CC(=O)[O-])CC(=O)NCC1CCCO1)CCN(CC(=O)[O-])CC(=O)NCC1CCCO1.[Gd+3] (centres unmarked) [Example 2],LD50 value,[1],16.2 mmol/kg
same,relaxivity rate T1,[2]; 4% human serum albumin (HSA),4.8 mmol⁻¹ s⁻¹
same,relaxivity rate T2,[2]; 4% human serum albumin (HSA),4.8 mmol⁻¹ s⁻¹
same,relaxivity rate T1,[2]; [3],4.4 mmol⁻¹ s⁻¹
same,relaxivity rate T2,[2]; [3],5.6 mmol⁻¹ s⁻¹
